Assay results: patent US3998971A, “Novel N-vinyloxyethyl-α-methyl-β-phenethylamines for depressing appetite” (Abbott Laboratories, priority 1975, dated 1976)
“Also recorded” adds a separate entry of the source. Where a name gives a salt, the structure may show the parent alone.

Tests used:
Acute Toxicity in Rats = format: in vivo, rat; conditions: rat, in vivo, po; P.O., rats; range in parentheses; read-out: Calculated LD50
Rats [1] = assay: Acute Toxicity in Rats; format: in vivo, rat; conditions: for Mortality Ratio / toxicity relative to fenfluramine: rats; for toxicity compared with fenfluramine / toxicity relative to fenfluramine: HCl salts; for toxicity compared with fenfluramine: summary in words; for toxicity relative to fenfluramine: acute
Rats [2] = assay: Reduction of food consumption in rats (average daily consumption of food, ED50); format: in vivo, rat; conditions: for % Change From Control Value in Average Daily Consumption of Food: one hour prior to feeding; for ED50: Rattus norvegicus, po, read-out: Calculated ED50 (dose necessary to reduce the intake of food by 50%); for potency compared with fenfluramine: HCl salts, summary in words; for Relative Potency: Summary of Table II, fenfluramine = 1
Experimental: Table II records the percent change in average daily consumption of food at various dosage levels upon administration of fenfluramine or the HCl salt of the compounds of formula B in which R is Cl or CF3 as well as the dose in milligrams per killograms necessary to reduce the intake of food by 50% (ED 50). […] In this study, drugs were administered one hour prior to feeding on the fifth day of regular food intake at doses of 5, 10 and 20 milligrams per killogram, with five rats being dosed at each level and fifteen rats serving as controls.
*ED50 : dose (mg/kg) necessary to reduce the intake of food by 50%.

[3] = tested on: rat serum lipids and glucose; assay: Effect of pre-treatment on rat serum lipids and glucose induced by olive oil gavage; format: in vivo, rat (male Sprague Dawley); conditions: for Serum Free Fatty Acids: 20 mg/kg i.p. 2 hours before olive oil (20 ml/kg gavage); for Serum Free Fatty Acids / Serum Concentration, Cholesterol / Serum Concentration, Glucose / Serum Concentration, Glycerol / Serum Concentration, Triglycerides: blood 3 hours after oil; for Serum Concentration, Cholesterol / Serum Concentration, Glucose / Serum Concentration, Glycerol / Serum Concentration, Triglycerides: 20 mg/kg i.p. 2 hours before olive oil; for inhibiting the increase in serum triglycerides induced by olive oil gavage: % of the oil treated group; for reduction of olive oil induced increase in serum cholesterol: HCl salts; for inhibiting the increase in serum triglycerides, compared with fenfluramine: olive oil gavage
Excerpt: The effect of pre-treatment with fenfluramine and the HCl salts of the compounds of formula B in which R is Cl or CF3 on rat serum lipids and glucose induced by olive oil gavage.
The present study was designed to compare the effects of fenfluramine, and the HCl salts of the compounds of formula B in which R=Cl and CF3 on serum glucose and lipid parameters in male rats after an olive oil meal.
Twenty-four male Sprague Dawley rats (200-250 g.) were divided into 8 groups as follows:
The animals were not fasted. Where indicated, the rats were pre-treated (intraperitoneally) with the appropriate drug for 2 hours prior to the administration of olive oil. Three hours after olive oil treatment, the animals were anesthetized with ether and blood samples obtained by cardiac puncture of the exposed heart. In each case, total treatment time was 5 hours.

Rats [4] = assay: Sidman Avoidance Test in the Rat; format: in vivo, rat (male, Long Evans black-hooded); conditions: for effect on performance / behavior: 8 mg/kg; for effect on performance / behavior / effect on performance in Sidman Avoidance test / effect on response rate / effect on shock rate: in words; for effect on performance in Sidman Avoidance test / effect on response rate / effect on shock rate: overall
Experimental: The compound fenfluramine and the HCl salt compound of formula B in which R is Cl were examined in the Sidman Avoidance test.
Fenfluramine was run as a standard compound for comparative purposes in the study of appetite-suppressing drugs. The effects of drug-induced behavior are evaluated using the technique of Sidman Avoidance (Sidman, M., J. Comp. Physiol. Psychol. 46:253-261, 1953).
Male, Long Evans black-hooded rats (Simonsen Labs) weighing approximately 500 grams are run individually in Lehigh Valley Electronics rodent test chambers. Sessions (day/night) are 7.5 hours and 14 hours in length, respectively. The paradigm consists of two distinct temporal intervals for neither of which is the rat given any exteroceptive cues. The amount of time that elapses between shocks designates the shock-shock interval, is of a predetermined fixed length (10 seconds), and programmed by a recycling timer. When the rat responds by pressing a lever, the shock-shock interval is terminated and the response-shock interval is started. This interval is also of a predetermined fixed length (30 seconds) and programmed by a recycling timer. Both timers never operate simultaneously. The response-shock interval begins anew each time the rat responds on the lever. If the interval should elapse without the rat responding, a Shock (0.5 seconds, 10 mA) is given via the grid floor and the response-shock interval ends and the shock-shock interval begins.
Drug effects are evaluated as a precentage deviation of the rat's behavior from his baseline rate (responses/minute and shocks/minute). These effects are analyzed in 15 minute segments and an overall percentage deviation (response index and shock index) is determined.
based on an 8 mg/kg oral dose.

Mouse = assay: Symtomatology Tests in the Mouse; format: in vivo; conditions: for stimulant effects: low doses (10-50 mg/kg)
Excerpt: Symtomatology Tests in the Mouse

diabetics = conditions: cited from earlier work
[5] = tested on: plasma free fatty acids and triglycerides; conditions: cited from earlier work
[6] = Comparison with fenfluramine: stimulating properties; format: in vivo; conditions: HCl salts, in words
[7] = Solubility of the salt in water; conditions: HCl salt
[8] = 8 mg/kg oral, 7.5 hours session, 4 rats

Row | Structure (SMILES) | LD50 (Acute Toxicity in Rats) [mg/kg] | Mortality Ratio (Rats [1]; 0.25 gm/kg P.O.) | % Change From Control Value in Average Daily Consumption of Food (Rats [2]; 5 mg/kg P.O., rats) [%] | % Change From Control Value in Average Daily Consumption of Food (Rats [2]; 10 mg/kg P.O., rats) [%] | % Change From Control Value in Average Daily Consumption of Food (Rats [2]; 20 mg/kg P.O., rats) [%] | ED50 (Rats [2]; P.O., rats) [mg/kg] | Serum Free Fatty Acids [3] [μEq/liter] | Serum Concentration, Cholesterol [3] [mg%] | Serum Concentration, Glucose [3] [mg%] | Serum Concentration, Glycerol [3] | Serum Concentration, Triglycerides [3] [mg%] | Shock Rate (percentage deviation from baseline rate) (Rats [4]; [8]) [%] | effect on performance / behavior (Rats [4]) | effect on performance in Sidman Avoidance test (Rats [4]) | effect on response rate (Rats [4]) | effect on shock rate (Rats [4]) | stimulant effects (Mouse) | Mortality Ratio (Rats [1]; 0.5 gm/kg P.O.) | Mortality Ratio (Rats [1]; 1.0 gm/kg P.O.) | Mortality Ratio (Rats [1]; 2.00 gm/kg P.O.) | also measured
1 | CCNC(C)Cc1cccc(C(F)(F)F)c1 (centres unmarked) [Fenfluramine, reference compound] | 225 | 4/6 | -18.7 | -39.3 | -50.5 | 20 | 919±61 | 140±3 | 160±9 | 1.6±.10 mg% | 61±1 | -50 | amphetamine-like effect on performance | all doses to be effective in producing significant results; also recorded: results indicative of amphetamine-like compounds | increase in response rate | decrease in shock rate | stimulant effects |  |  |  | Mortality Ratio (Rats [1]; 0.1 gm/kg P.O.): 0/6; Mortality Ratio (Rats [1]; 0.2 gm/kg P.O.): 2/6; Mortality Ratio (Rats [1]; 0.3 gm/kg P.O.): 5/6; Calculated ED50 (dose necessary to reduce the intake of food by 50%) (Rats [2]; P.O., rats): 20.7 mg/kg; effect on olive oil induced increase in serum cholesterol ([3]; in words): unaffected; Response Rate (percentage deviation from baseline rate) (Rats [4]; [8]): +15%; sedative or stimulant action (diabetics; Nursing 74): acts as a sedative rather than a stimulant; glucose tolerance in diabetics (diabetics; Turtle et al.): appears to improve glucose tolerance in diabetics; undesirable side effects (diabetics; diabetics, Turtle et al.): without producing undersirable side effects; post absorption glucose levels (diabetics; given before meals, maturity onset and insulin-requiring diabetics, Turtle et al.): consistently reduced post absorption glucose levels; intestinal absorption of triglycerides ([5]; Bizzi et al.): inhibition of the intestinal absorption of triglycerides; plasma triglycerides ([5]; fed, but not fasted, animals, Garattini et al.): decrease in plasma triglycerides in fed, but not fasted, animals; concentration of plasma free fatty acids ([5]; rats, Bizzi et al.): rapid increase; rise in plasma triglycerides after olive oil gavage ([5]; several hours after olive oil gavage, prior treatment of rats): inhibited
2 | C=COCCNC(C)Cc1cccc(C(F)(F)F)c1 (stereo not drawn) [HCl Salt, R=CF3, N-(2-vinyloxyethyl)-α-methyl-β-(3-trifluoromethylphenyl) Phenethylamine Hydrochloride] | 1010 |  | -22.9 | -28.3 | -76.0 | 17.4 | 870±61 | 122±10 | 159±7 | 2.1±.40 mg% | 62±13 |  |  |  |  |  |  | 0/6 | 4/6 | 5/6 | Mortality Ratio (Rats [1]; 0.75 gm/kg P.O.): 1/6; Mortality Ratio (Rats [1]; 0.85 gm/kg P.O.): 2/6; toxicity compared with fenfluramine (Rats [1]): considerably less toxic than fenfluramine; toxicity relative to fenfluramine (Rats [1]): approximately four times less toxic than fenfluramine; potency compared with fenfluramine (Rats [2]): considerably more potent; Relative Potency (Rats [2]): 1.2; potency relative to fenfluramine (times) (Rats [2]; rats, P.O.): ~1.2 times; inhibiting the increase in serum triglycerides induced by olive oil gavage [3]: 50-55%; reduction of olive oil induced increase in serum cholesterol [3]: 14-19%; inhibiting the increase in serum triglycerides, compared with fenfluramine ([3]; in words): comparable to fenfluramine; stimulating properties [6]: minimum stimulating properties; solubility in water [7]: soluble in water
3 | C=COCCNC(C)Cc1ccc(Cl)cc1 (stereo not drawn) [HCl Salt, R=Cl, N-(2-vinyloxyethyl)-α-methyl-β-(4-cholorophenyl) ethylamine hydrochloride] | 950 | 0/6 | -24.5 | -53.5 | -87.3 | 7.7 | 780±66 | 116±8 | 159±1 | 1.8±.30 mg% | 62±7 | -55 | did not significantly affect behavior except for the parameter of shock rate which was reduced | did not affect performance significantly overall | response rate remaining stable | sharp decrease in shock rate |  | 1/6 | 3/6 | 6/6 | Mortality Ratio (Rats [1]; 1.25 gm/kg P.O.): 4/6; Mortality Ratio (Rats [1]; 1.50 gm/kg P.O.): 5/6; toxicity compared with fenfluramine (Rats [1]): considerably less toxic than fenfluramine; toxicity relative to fenfluramine (Rats [1]): approximately four times less toxic than fenfluramine; potency compared with fenfluramine (Rats [2]): considerably more potent; Relative Potency (Rats [2]): 2.5; potency relative to fenfluramine (times) (Rats [2]; rats, P.O.): approximately 2.5 times; inhibiting the increase in serum triglycerides induced by olive oil gavage [3]: 50-55%; reduction of olive oil induced increase in serum cholesterol [3]: 14-19%; inhibiting the increase in serum triglycerides, compared with fenfluramine ([3]; in words): comparable to fenfluramine; stimulatory effect (Mouse; high doses (300-1000 mg/kg)): only a weak stimulatory effect; stimulating properties [6]: minimum stimulating properties; solubility in water [7]: soluble in water
4 | CN[C@@H](C)Cc1ccccc1 [Methamphetamine, methamphetamine] |  |  |  |  |  |  |  |  |  |  |  |  |  |  |  |  | stimulant effects |  |  |  | 
